Source: patent publication US6525001B1, “Substituted pyrimidine and pyridine herbicides” (Mid-American Commercialization Corporation, priority 1997, dated 2003)

Assays:
Format in all cases: in vivo
[1] = system: deadnettle (Lamium amplexicaule); assay: Test D; parameters: key: 0 is no effect; 100 is complete control; conditions: POSTEMERGENCE
How it was run: (§1)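 Visual rating, 0 (no effect) to 100 (complete control), vs untreated controls at ~21–28 d. Solvent/surfactant formulation; greenhouse. Postemergence test: spray at 1–4-leaf stage, 60:40 sandy loam:potting mix.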

[2] = system: rape (Brassica napus); assay: Test D; parameters: key: 0 is no effect; 100 is complete control; conditions: POSTEMERGENCE
How it was run: as §1

[3] = system: chickweed (Stellaria media); assay: Test D; parameters: key: 0 is no effect; 100 is complete control; conditions: POSTEMERGENCE
How it was run: as §1

[4] = system: common poppy (Papaver rhoeas); assay: Test D; parameters: key: 0 is no effect; 100 is complete control; conditions: PREEMERGENCE
[5] = system: field violet (Viola arvensis); assay: Test D; conditions: PREEMERGENCE
[6] = system: Italian ryegrass (Lolium multiflorum); assay: Test D; conditions: PREEMERGENCE
[7] = system: Russian thistle (Salsola kali); assay: Test D; parameters: key: 0 is no effect; 100 is complete control; conditions: PREEMERGENCE
[8] = system: littleseed canarygrass (Phalaris minor); assay: Test D; conditions: PREEMERGENCE
[9] = system: kochia (Kochia scoparia); assay: Test E pre-/postemergence/post directed; parameters: key: 0 is no effect; 100 is complete control; conditions: PREEMERGENCE
How it was run: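 Three application modes in greenhouse pots: preemergence soil spray, postemergence foliar spray at two to four leaves, and post-directed spray to soil and plant base. Ratings of 0–100 injury, assigned visually against untreated controls 13 to 21 days later.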

[10] = system: wild buckwheat (Polygonum convolvulus); assay: Test D; conditions: PREEMERGENCE
[11] = system: green foxtail (Setaria viridis); assay: Test D; parameters: key: 0 is no effect; 100 is complete control; conditions: PREEMERGENCE
[12] = system: windgrass (Apera spica-venti); assay: Test D; parameters: key: 0 is no effect; 100 is complete control; conditions: PREEMERGENCE
[13] = system: galium 2 (Galium aparine); assay: Test D; parameters: key: 0 is no effect; 100 is complete control; conditions: PREEMERGENCE
[14] = system: annual bluegrass (Poa annua); assay: Test D; parameters: key: 0 is no effect; 100 is complete control; conditions: PREEMERGENCE
[15] = system: sunflower (Helianthus annuus); assay: Test D; conditions: PREEMERGENCE
[16] = system: jointed goatgrass (Aegilops cylindrica); assay: Test D; conditions: PREEMERGENCE

Structure (SMILES): Cc1cnc(-c2ccc(C(F)(F)F)cc2)nc1Cc1cccc(C(F)(F)F)c1 [Example 1, 5-methyl-2-[4-(trifluoromethyl)phenyl]-4-[[3-(trifluoromethyl)phenyl]methyl]pyrimidine]
- Plant response rating, Deadnettle ([1]; Rate 16 g/ha): 85
- Plant response rating, Deadnettle ([1]; Rate 31 g/ha): 70
- Plant response rating, Deadnettle ([1]; Rate 62 g/ha): 70
- Plant response rating, Deadnettle ([1]; Rate 125 g/ha): 70
- Plant response rating, Rape ([2]; Rate 16 g/ha): 65
- Plant response rating, Rape ([2]; Rate 31 g/ha): 100
- Plant response rating, Rape ([2]; Rate 62 g/ha): 100
- Plant response rating, Rape ([2]; Rate 125 g/ha): 85
- Plant response rating, Chickweed ([3]; Rate 16 g/ha): 80
- Plant response rating, Chickweed ([3]; Rate 62 g/ha): 80
- Plant response rating, Chickweed ([3]; Rate 125 g/ha): 70
- Plant response rating, Common poppy ([4]; Rate 31 g/ha): 80
- Plant response rating, Common poppy ([4]; Rate 62 g/ha): 100
- Plant response rating, Common poppy ([4]; Rate 125 g/ha): 100
- Plant response rating, Common poppy ([4]; Rate 250 g/ha): 100
- Plant response rating, Field violet ([5]; Rate 31 g/ha): 20
- Plant response rating, Field violet ([5]; Rate 62 g/ha): 70
- Plant response rating, Field violet ([5]; Rate 125 g/ha): 85
- Plant response rating, Field violet ([5]; Rate 250 g/ha): 85
- Plant response rating, I. Ryegrass ([6]; Rate 31 g/ha): 10
- Plant response rating, I. Ryegrass ([6]; Rate 62 g/ha): 40
- Plant response rating, Russian thistle ([7]; Rate 31 g/ha): 10
- Plant response rating, Russian thistle ([7]; Rate 62 g/ha): 100
- Plant response rating, Russian thistle ([7]; Rate 250 g/ha): 100
- Plant response rating, LS canarygrass ([8]; Rate 31 g/ha): 20
- Plant response rating, LS canarygrass ([8]; Rate 62 g/ha): 60
- Plant response rating, LS canarygrass ([8]; Rate 125 g/ha): 85
- Plant response rating, LS canarygrass ([8]; Rate 250 g/ha): 70
- Plant response rating, Kochia ([9]; Rate 32 g/ha): 95
- Plant response rating, Kochia ([9]; Rate 64 g/ha): 100
- Plant response rating, Kochia ([9]; Rate 125 g/ha): 100
- Plant response rating, Wild buckwheat ([10]; Rate 31 g/ha): 40
- Plant response rating, Wild buckwheat ([10]; Rate 62 g/ha): 80
- Plant response rating, Wild buckwheat ([10]; Rate 125 g/ha): 85
- Plant response rating, Wild buckwheat ([10]; Rate 250 g/ha): 85
- Plant response rating, Green foxtail ([11]; Rate 31 g/ha): 60
- Plant response rating, Green foxtail ([11]; Rate 62 g/ha): 100
- Plant response rating, Green foxtail ([11]; Rate 125 g/ha): 100
- Plant response rating, Green foxtail ([11]; Rate 250 g/ha): 100
- Plant response rating, Windgrass ([12]; Rate 31 g/ha): 60
- Plant response rating, Windgrass ([12]; Rate 62 g/ha): 100
- Plant response rating, Windgrass ([12]; Rate 125 g/ha): 100
- Plant response rating, Windgrass ([12]; Rate 250 g/ha): 100
- Plant response rating, Galium ([13]; Rate 31 g/ha): 20
- Plant response rating, Galium ([13]; Rate 62 g/ha): 100
- Plant response rating, Galium ([13]; Rate 125 g/ha): 100
- Plant response rating, Galium ([13]; Rate 250 g/ha): 100
- Plant response rating, Annual bluegras ([14]; Rate 31 g/ha): 75
- Plant response rating, Annual bluegras ([14]; Rate 62 g/ha): 60
- Plant response rating, Annual bluegras ([14]; Rate 125 g/ha): 100
- Plant response rating, Annual bluegras ([14]; Rate 250 g/ha): 85
- Plant response rating, Sunflower ([15]; Rate 31 g/ha): 10
- Plant response rating, Sunflower ([15]; Rate 62 g/ha): 35
- Plant response rating, Sunflower ([15]; Rate 125 g/ha): 50
- Plant response rating, Sunflower ([15]; Rate 250 g/ha): 30
- Plant response rating, Jointed goatgra ([16]; Rate 31 g/ha): 10
- Plant response rating, Jointed goatgra ([16]; Rate 62 g/ha): 20
- Plant response rating, Jointed goatgra ([16]; Rate 125 g/ha): 70
- Plant response rating, Jointed goatgra ([16]; Rate 250 g/ha): 50
